Measurements from paper PMC9212739 (Antiviral Research, 2022).
Values joined by “and” are separate entries in the source; they are usually repeats but may differ in a detail not shown here. Identical values can stand only once. Like-named read-outs stand apart in the source and are kept apart here.

What was measured:
[1] = tested on: SARS-CoV-2 in VeroE6 TMPRSS2 cells; assay: microbe, parasite or virus in culture; type: cell-based
LCMV ExoN = LCMV ExoN (Mammarenavirus choriomeningitidis, UniProt P09992); assay: biochemical; parameters: species or system Lymphocytic Choriomeningitis virus
Sequence of LCMV ExoN (P09992 357-558 limits assumed): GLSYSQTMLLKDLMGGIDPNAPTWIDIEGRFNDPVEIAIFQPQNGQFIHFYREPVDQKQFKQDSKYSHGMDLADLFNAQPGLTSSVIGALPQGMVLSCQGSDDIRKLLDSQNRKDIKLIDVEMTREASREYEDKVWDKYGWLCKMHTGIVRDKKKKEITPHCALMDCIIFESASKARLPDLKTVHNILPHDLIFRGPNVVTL

MACV ExoN = MACV ExoN (Mammarenavirus machupoense, UniProt P26578); assay: biochemical; parameters: species or system Machupo virus
Sequence of MACV ExoN (P26578 355-564 limits assumed): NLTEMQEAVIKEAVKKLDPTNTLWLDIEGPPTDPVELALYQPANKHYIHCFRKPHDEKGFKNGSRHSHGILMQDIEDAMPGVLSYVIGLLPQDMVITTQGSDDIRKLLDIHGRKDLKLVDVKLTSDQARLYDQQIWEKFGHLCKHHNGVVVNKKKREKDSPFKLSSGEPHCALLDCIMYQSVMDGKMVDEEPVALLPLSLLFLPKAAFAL

[2] = biological target: SARS-CoV-2 ExoN nsp14/nsp10 complex (Severe acute respiratory syndrome coronavirus 2, UniProt P0DTD1); assay: biochemical; settings: read-out: % inhibition of ExoN at 5 μM
LCMV minigenome = type: cell-based
[3] = tested on: LCMV, MACV and SARS-CoV-2 ExoN; type: biochemical
in vitro = settings: african green monkey, veroe6 tmprss2 cells
[4] = Severe acute respiratory syndrome coronavirus 2, VeroE6/TMPRSS2
[5] = read-out: % inhibition of ExoN at 5 μM

| SMILES | EC50 [1, 4] | IC50 (LCMV ExoN; IC50) | inhibition at 5 µM (LCMV ExoN; [5]) | IC50 (MACV ExoN; IC50) | inhibition at 5 µM (MACV ExoN; [5]) | inhibition at 5 µM [2] | antiviral effect (LCMV minigenome) | EC50 [1] | % inhibition of ExoN at 20 μM, all ExoN [3] | CC50 at 48 h (in vitro) |
| --- | --- | --- | --- | --- | --- | --- | --- | --- | --- | --- |
| CCC(CC)COC(=O)[C@H](C)N[P@](=O)(OC[C@H]1O[C@@](C#N)(c2ccc3c(N)ncnn23)[C@H](O)[C@@H]1O)Oc1ccccc1 [Remdesivir] | 1.5 ± 1.1 µM | – | – | – | – | – | – | – | – | – |
| O=C(O)C1=CC(=C(c2ccc(O)c(C(=O)O)c2)c2ccc(O)c(C(=O)O)c2)C=CC1=O [Compound 40, Aurintricarboxyclic acid] | 27.2 ± 20.7 µM | 7.05 µM and 7.1 µM | 52% | 5.57 µM and 5.6 µM | 39% | 23% | no antiviral effect | 27 µM | 100% | > 50 µM |
